The results in this text go back to article PMC4907692, “Engineering vanilloid-sensitivity into the rat TRPV2 channel” (eLife, 2016).

One experiment has as its target T1, 1D4-tagged WT TRPV2 (Rattus norvegicus, UniProt Q9WUD2).
T1 construct: made in house; host or cells: S. cerevisiae BJ5457, isolated membranes
T1 sequence (Q9WUD2 1-761): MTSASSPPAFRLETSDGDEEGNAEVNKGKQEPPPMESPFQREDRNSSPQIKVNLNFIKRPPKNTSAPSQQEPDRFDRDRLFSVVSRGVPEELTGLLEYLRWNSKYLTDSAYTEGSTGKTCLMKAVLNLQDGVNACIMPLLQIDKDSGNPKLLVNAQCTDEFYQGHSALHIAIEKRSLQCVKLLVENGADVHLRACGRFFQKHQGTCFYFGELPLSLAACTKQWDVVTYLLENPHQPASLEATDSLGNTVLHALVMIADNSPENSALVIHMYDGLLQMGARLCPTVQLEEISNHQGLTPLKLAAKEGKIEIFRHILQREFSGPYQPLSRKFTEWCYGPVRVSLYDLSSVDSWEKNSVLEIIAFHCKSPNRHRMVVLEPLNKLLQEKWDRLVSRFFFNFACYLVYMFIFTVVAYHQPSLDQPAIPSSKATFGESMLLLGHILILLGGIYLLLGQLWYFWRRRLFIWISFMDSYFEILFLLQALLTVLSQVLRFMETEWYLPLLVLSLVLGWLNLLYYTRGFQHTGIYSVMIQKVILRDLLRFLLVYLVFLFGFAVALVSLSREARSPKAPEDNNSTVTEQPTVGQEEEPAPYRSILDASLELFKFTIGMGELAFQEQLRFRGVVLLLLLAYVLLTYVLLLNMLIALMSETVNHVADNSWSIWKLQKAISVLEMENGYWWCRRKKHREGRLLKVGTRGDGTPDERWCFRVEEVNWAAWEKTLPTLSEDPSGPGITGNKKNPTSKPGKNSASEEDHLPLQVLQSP
As to the kind of experiment: 3H-RTx binding to yeast membranes containing 1D4-tagged WT TRPV2. From the text:
To examine the strength of RTx binding to the TRPV2 channel, we undertook binding assays after expressing 1D4-tagged TRPV2 and TRPV2 QM in S. cerevisiae and isolating yeast membranes, similar to the experiments described above with TRPV1 (Figure 2). […] To examine the relative importance of the four residues for mediating RTx sensitivity in the TRPV2 QM, we constructed triple mutants and evaluated their sensitivity to RTx electrophysiologically.
The full-length TRPV1 and TRPV2 channels with 1D4 affinity tags ([…]) on their C-termini were cloned into the YEpHIS vector and expressed in the BJ5457 strain of S. cerevisiae using the strong constitutively active PMA1 promoter, as previously described ([Moiseenkova-Bell et al., 2008]). After 48 hr of expression at 30°C in YPD media, cells were harvested by centrifugation and re-suspended in PBS buffer, supplemented with complete protease inhibitor cocktail (Roche, Indianapolis, IN) and 4-amidinophenylmethanesulfonyl fluoride hydrochloride (APMSF) (Sigma-Aldrich, St. Louis, MO). Cells were broken by passing through an Avestin homogenizer at the pressure of 35 kpsi, cell lysate was cleared by centrifugation at 8,000 g for 15 min and membranes were isolated by ultracentrifugation at 190,000 g for 1 hr. […]
S. cerevisiae cells overexpressing TRPV1 constructs to be used in ligand binding assays on intact cells (Figure 1E,F) were grown as for small scale expression trials. 24 hr after protein induction cells were spun down at 4000g, the supernatant was removed and the pellet resuspended in 1x PBS, normalizing OD600 to 75 for each sample, and aliquoted for storage at -80°C. ^3H-RTx binding assays on cells were performed at 37°C as previously described ([Feng et al., 2015]), but where non-specific binding of RTx was measured using cells expressing GFP alone. […] Data for binding of RTx to membranes was corrected for non-specific binding, determined using either excess non-radioactive ligand or heat inactivation of the protein, as previously described ([Feng et al., 2015]). […]

The target of a further experiment is T2, TRPV2 F472S/L510T (Rattus norvegicus, UniProt Q9WUD2, F472S/L510T).
T2 construct: expressed in transfected cells; host or cells: Xenopus oocytes (cRNA injection)
T2 sequence (Q9WUD2 whole entry F472S/L510T): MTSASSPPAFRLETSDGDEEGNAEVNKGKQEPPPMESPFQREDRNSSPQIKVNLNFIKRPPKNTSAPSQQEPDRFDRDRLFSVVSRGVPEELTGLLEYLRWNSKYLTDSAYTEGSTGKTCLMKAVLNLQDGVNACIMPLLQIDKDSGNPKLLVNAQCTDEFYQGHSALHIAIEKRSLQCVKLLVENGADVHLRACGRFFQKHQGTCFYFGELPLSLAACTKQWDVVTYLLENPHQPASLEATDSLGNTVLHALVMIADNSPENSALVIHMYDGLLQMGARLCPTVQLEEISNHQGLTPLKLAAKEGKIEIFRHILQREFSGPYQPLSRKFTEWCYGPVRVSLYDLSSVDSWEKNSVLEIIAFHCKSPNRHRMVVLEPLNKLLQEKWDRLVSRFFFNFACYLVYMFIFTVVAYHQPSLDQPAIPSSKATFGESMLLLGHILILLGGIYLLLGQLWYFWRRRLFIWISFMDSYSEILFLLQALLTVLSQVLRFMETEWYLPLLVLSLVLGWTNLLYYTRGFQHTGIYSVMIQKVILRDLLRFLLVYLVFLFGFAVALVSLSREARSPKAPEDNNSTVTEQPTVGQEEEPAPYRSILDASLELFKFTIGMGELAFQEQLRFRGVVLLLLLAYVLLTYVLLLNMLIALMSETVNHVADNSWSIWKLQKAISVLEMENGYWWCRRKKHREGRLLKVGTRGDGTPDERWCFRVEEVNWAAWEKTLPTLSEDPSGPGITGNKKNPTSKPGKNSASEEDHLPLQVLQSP
As to the kind of experiment: Two-electrode voltage-clamp in Xenopus oocytes, TRPV2 F472S/L510T. In kind it is cell-based. Particulars: 100 nM RTx. From the text: To further investigate the putative vanilloid binding pocket in TRPV1, we inspected the cryo-EM structure of TRPV1, looking for residues that are located nearby to the putative RTx density (Figure 1B; regions/residues highlighted in yellow) and that differ between TRPV1 and TRPV2 channels (Figure 3—figure supplement 1; regions highlighted in magenta). […] To quantify the contribution of each of these residues to TRPV1 channel activation by RTx under our experimental conditions, we mutated each to the corresponding residue in TRPV2. We then expressed each construct in oocytes and used the two electrode voltage-clamp technique to study activation by RTx and by the non-specific TRPV channel activator 2-APB. We recorded time courses for channel activation by each agonist while stepping the membrane potential from −60 to +60 mV every 3 s from a holding potential of 0 mV using an external recording solution containing 100 mM KCl (internal K^+ concentration in a healthy oocyte is 100 mM) (Figure 3A, left). We also recorded current-voltage (I-V) relations by stepping over a wider range of voltages in the absence and presence of activators, or in the presence of ruthenium red (RR), a non-specific inhibitor of TRP channels (Figure 3A, right). […]
(In general: In two-electrode clamp one electrode senses voltage and the other passes current.)

As usually defined, the Kd is the constant that tells how readily two partners part at equilibrium.

Take `C=C(C)[C@]12C[C@@H](C)[C@@]34O[C@](Cc5ccccc5)(O[C@@H]1[C@@H]3C=C(COC(=O)Cc1ccc(O)c(OC)c1)C[C@]1(O)C(=O)C(C)=C[C@@H]41)O2` [RTx, resiniferatoxin]: the “RTx binding in words” value at 1D4-tagged WT TRPV2 is given as “weak binding”. For the same compound, on 1D4-tagged WT TRPV2 (37°C), the “Hill slope (nH)” value came to 0.9. The equilibrium dissociation constant (Kd) on 1D4-tagged WT TRPV2 (37°C, read-out: Kd of 3H-RTx binding (Hill fit)) was more than 200 nM. The “channel activation by RTx” value on TRPV2 F472S/L510T was “sensitive to RTx”.
